Data: the supplement of paper PMC10307832

How the values were obtained:
Experiment in all cases: relative viability (nuclei count vs DMSO), 5 days (fraction); higher = more cells survive
[1] = compound: Cc1ccc(C(=O)Nc2cccc(C(F)(F)F)c2)cc1Nc1cncc(C(N)=O)c1 [ALW-II-49-7] + CC(=O)c1c(C)c2cnc(Nc3ccc(N4CCNCC4)cn3)nc2n(C2CCCC2)c1=O [Palbociclib] (partner 0.5 µM)
Procedure, shortened: (§1)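 After 5 days of treatment, lung cancer cells in 1536-well plates were fixed and stained in a single step (final 0.05% Triton X-100, 1% formaldehyde, 1 ug/ml Hoechst) and their nuclei counted on 4× images. Treatment had been applied by pin tool the day after seeding as one drug alone or as a fixed anchor-drug dose with five library-drug doses (not always all listed) in √10 steps. Relative viability is the nuclei count of treated wells divided by that of vehicle wells, and values are medians of duplicate plates.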

XMD13-2 + Luminespib = compound: C1CC1C(=O)NC2=NNC3=C2C=CC(=C3)C4=CC(=CC=C4)C(=O)NC5CC5 [XMD13-2] + CCNC(=O)c1noc(-c2cc(C(C)C)c(O)cc2O)c1-c1ccc(CN2CCOCC2)cc1 [Luminespib] (partner 0.01 µM)
Procedure, shortened: as §1

XMD13-2 + AZD7762 = compound: C1CC1C(=O)NC2=NNC3=C2C=CC(=C3)C4=CC(=CC=C4)C(=O)NC5CC5 [XMD13-2] + NC(=O)Nc1cc(-c2cccc(F)c2)sc1C(=O)N[C@H]1CCCNC1 [AZD7762] (partner 0.2 µM)
Procedure, shortened: as §1

ALW-II-49-7 + Foretinib = compound: Cc1ccc(C(=O)Nc2cccc(C(F)(F)F)c2)cc1Nc1cncc(C(N)=O)c1 [ALW-II-49-7] + COc1cc2c(Oc3ccc(NC(=O)C4(C(=O)Nc5ccc(F)cc5)CC4)cc3F)ccnc2cc1OCCCN1CCOCC1 [Foretinib] (partner 0.25 µM)
Procedure, shortened: as §1

| Cell Line | relative viability ([1]; first compound 0.08 µM) | relative viability ([1]; first compound 0.253 µM) | relative viability ([1]; first compound 0.8 µM) | relative viability ([1]; first compound 8 µM) | relative viability (XMD13-2 + Luminespib; first compound 0.05 µM) | relative viability (XMD13-2 + Luminespib; first compound 0.1581 µM) | relative viability (XMD13-2 + Luminespib; first compound 0.5 µM) | relative viability (XMD13-2 + Luminespib; first compound 1.581 µM) | relative viability (XMD13-2 + Luminespib; first compound 5 µM) | relative viability (XMD13-2 + AZD7762; first compound 0.05 µM) | relative viability (XMD13-2 + AZD7762; first compound 0.1581 µM) | relative viability (XMD13-2 + AZD7762; first compound 0.5 µM) | relative viability (XMD13-2 + AZD7762; first compound 1.581 µM) | relative viability (XMD13-2 + AZD7762; first compound 5 µM) | relative viability (ALW-II-49-7 + Foretinib; first compound 0.253 µM) | relative viability (ALW-II-49-7 + Foretinib; first compound 0.8 µM) | relative viability (ALW-II-49-7 + Foretinib; first compound 2.53 µM) | relative viability (ALW-II-49-7 + Foretinib; first compound 8 µM) | relative viability ([1]; first compound 2.53 µM) | relative viability (ALW-II-49-7 + Foretinib; first compound 0.08 µM) |
| --- | --- | --- | --- | --- | --- | --- | --- | --- | --- | --- | --- | --- | --- | --- | --- | --- | --- | --- | --- | --- |
| LK-2 | 0.767 | 0.487 | 0.63 | 0.673 | 0.181 | 0.17 | 0.179 | 0.205 | 0.172 | 0.626 | 0.499 | 0.476 | 0.431 | 0.689 | 0.884 | 1.27 | 0.958 | 1.31 | – | – |
| NCI-H23 | 0.495 | 0.496 | 0.573 | 0.543 | 0.222 | 0.2 | 0.21 | 0.204 | 0.21 | 0.199 | 0.256 | 0.231 | 0.209 | 0.296 | 1.01 | 1.06 | 0.993 | 1.03 | 0.54 | 0.923 |
| NCI-H1355 | 0.372 | 0.428 | 0.376 | 0.436 | 0.723 | 0.726 | 0.732 | 0.725 | 0.759 | 0.854 | 0.881 | 0.787 | 0.636 | 0.793 | 0.895 | 0.969 | 0.887 | 1.02 | 0.4 | 1.05 |
| A-427 | 0.491 | 0.523 | 0.556 | 0.51 | 1.08 | 0.846 | 0.94 | 0.945 | 0.849 | 0.899 | 0.74 | 0.811 | – | 0.588 | 0.95 | 1.12 | 1.14 | 1.2 | 0.561 | 1.16 |
| NCI-H1793 | 0.323 | 0.278 | 0.29 | 0.33 | 0.277 | – | 0.168 | 0.172 | 0.175 | 0.707 | 0.662 | 0.468 | 0.524 | 0.72 | 0.642 | 0.728 | 0.701 | 0.855 | 0.291 | 0.667 |
| LU99A | – | 0.403 | 0.39 | 0.359 | 0.262 | 0.295 | 0.254 | 0.178 | 0.267 | 0.378 | 0.501 | 0.442 | 0.327 | 0.312 | 0.936 | 0.92 | 0.867 | 0.768 | 0.377 | 0.82 |
